Assay results taken from US9688624B2, “DP2 antagonist and uses thereof” (Brickell Biotech, Inc., priority 2010, dated 2017).
Where a name gives a salt, the structure may show the parent alone. Read-outs that look alike come from different tables or passages of the source.

Legend:
[1] = tested on: DK-PGD2-induced peripheral blood leukocyte influx; assay: Guinea pig IV DK-PGD2-induced peripheral blood leukocyte influx; format: in vivo; settings: for EC50 / ED50: Cavia porcellus, Leukocyte, calculated; for EC50: iv, plasma concentration; for ED50: oral
Experimental: Example 19: Guinea Pig IV-DKPGD2-Induced Peripheral Blood Leukocyte to Influx
The ability of Compound 2 to inhibit leukocyte migration in vivo was assessed using intravenous injection of 13,14-dihydro-15-keto-prostaglandin D2 (DK-PGD2). Methods were adapted from those detailed Shichijo et al., 2003, Journal of Pharmacology and Experimental Therapeutics, 307:518-525. Male Hartley guinea pigs were immunized with ovalbumin (OVA) on day 0 by intraperitoneal (IP) injection of 1 ml of a 100 μg/ml solution in Imject Alum. They were then used in the DK-PGD2 procedure between days 14 and 21. Subjects were randomly assigned to receive either vehicle (0.5% methyl cellulose, 4 ml/kg, oral (PO)) or one of three to four doses of test compound. Two hours or eighteen hours after dosing, animals were anesthetized with ketamine and challenged with DK-PGD2 (1 mg/kg, IV). Thirty minutes after IV administration, blood was collected via the marginal ear vein into EDTA tubes for cell analysis. 10 μl blood was lysed in 190 μl water followed by a further 20-fold dilution in PBS. A 10 μl fraction was mixed with equal parts trypan blue and loaded on a hemocytometer. Cells were visualized at a magnification of 40× using a LabPro light microscope and totals counted and recorded. Cells are expressed as total cells×10^8 per ml of blood Inhibition of this effect is determined statistically using Graphpad prism.

[2] = Thermodynamic aqueous solubility; format: physicochemical
Experimental: Example 6: Thermodynamic Aqueous Solubility
Aqueous solubility was determined by suspending sufficient compound in water to give a maximum final concentration of ≧20 mg·ml-1 of the parent free-form of the compound. The suspension was equilibrated at 25° C. for 24 hours then the pH was measured. The suspension was then filtered through a glass fibre C filter into a 96 well plate unless stated otherwise. The filtrate was then diluted by a factor of 101. Quantitation was by HPLC with reference to a standard solution of approximately 0.25 mg·ml^−1 in DMSO. Different volumes of the standard, diluted and undiluted sample solutions were injected. The solubility was calculated using the peak areas determined by integration of the peak found at the same retention time as the principal peak in the standard injection.
Analysis was performed on an Agilent HP1100 series system equipped with a diode array detector and using ChemStation software vB.02.01-SR1.

[3] = Plasma concentrations in guinea pig DK-PGD2 leukocyte influx study; format: in vivo; settings: Hartley; for concentration at 18.5 h: read-out: concentration of Compound 1 in plasma
Experimental: In the 2 hr study, intravenous DK-PGD2 (IV DK-PGD2) increased the number of peripheral blood leukocytes, mainly lymphocytes, which likely reflects recruitment from bone marrow. […] Plasma concentrations taken 2.5 hours following oral Compound 2 were 45 nM±36 and 120 nM±46 in the 10 mg/kg and 30 mg/kg dose groups, respectively.
In the 18 hr guinea pig study, a significant increase in peripheral blood leukocytes was also observed following IV DK-PGD2 challenge. […] The concentration of Compound 1 in plasma recovered 18.5 hours following oral dose was 4 nM±7, 21 nM±19 and 17 nM±10 in the 10 mg/kg, 30 mg/kg and 100 mg/kg dose groups, respectively.

[4] = biological target: CYP2C9 (Homo sapiens (Human), UniProt P11712); assay: Extracellular cytochrome P450 inhibition (microsomes); format: in vitro ADME; settings: 2C9, diclofenac 4′-hydroxylation
[5] = tested on: ovalbumin (OVA)-induced allergic rhinitis; assay: Mouse allergic rhinitis model; format: in vivo; settings: 10 mg/kg PO daily
Experimental: Example 18: Mouse Allergic Rhinitis Model
Compound 2 was evaluated in a mouse model of ovalbumin (OVA)-induced allergic rhinitis in which nasal ovalbumin challenges to OVA-primed mice elicits an increase in sneezing and nasal rubs (Methods were adapted from those detailed in Nakaya, M., et al. 2006, Laboratory Investigation, 86:917-926). OVA-primed mice received an intranasal challenge of OVA daily for 5 consecutive days. The number of sneezes and nasal rubs were counted over an 8 minute recording session on days 1, 3 and 5 immediately following OVA challenge. OVA caused a significant increase in both sneezing behavior and nasal rubs when compared to intranasal phosphate buffered saline (PBS) challenge. […] The plasma exposure for Compound 1 measured in a satellite group was 1360 nM, 460 nM, 210 nM and 90 nM for time points 1, 2, 4, and 6 hr post-dose, respectively.

[6] = biological target: CYP1A2 (Homo sapiens (Human), UniProt P05177); assay: Extracellular cytochrome P450 inhibition (microsomes)
[7] = water, listed as Amorphous Compound 2, sodium salt

CYP2C9, sequence (P11712 whole entry): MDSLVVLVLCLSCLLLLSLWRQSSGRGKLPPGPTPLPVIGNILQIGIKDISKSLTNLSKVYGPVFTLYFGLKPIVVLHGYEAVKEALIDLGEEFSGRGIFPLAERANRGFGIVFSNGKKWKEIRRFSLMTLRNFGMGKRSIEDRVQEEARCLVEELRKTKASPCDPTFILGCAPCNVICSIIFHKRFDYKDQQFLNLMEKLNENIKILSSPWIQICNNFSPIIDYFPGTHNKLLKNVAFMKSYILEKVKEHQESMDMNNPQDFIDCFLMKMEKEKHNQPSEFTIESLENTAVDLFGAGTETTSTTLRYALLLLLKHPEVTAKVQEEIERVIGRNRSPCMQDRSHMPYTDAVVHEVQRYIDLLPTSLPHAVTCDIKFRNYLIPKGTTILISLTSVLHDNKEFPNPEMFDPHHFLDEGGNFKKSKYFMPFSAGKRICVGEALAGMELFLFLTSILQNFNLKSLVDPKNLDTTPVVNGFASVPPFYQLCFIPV
CYP1A2, sequence (P05177 whole entry): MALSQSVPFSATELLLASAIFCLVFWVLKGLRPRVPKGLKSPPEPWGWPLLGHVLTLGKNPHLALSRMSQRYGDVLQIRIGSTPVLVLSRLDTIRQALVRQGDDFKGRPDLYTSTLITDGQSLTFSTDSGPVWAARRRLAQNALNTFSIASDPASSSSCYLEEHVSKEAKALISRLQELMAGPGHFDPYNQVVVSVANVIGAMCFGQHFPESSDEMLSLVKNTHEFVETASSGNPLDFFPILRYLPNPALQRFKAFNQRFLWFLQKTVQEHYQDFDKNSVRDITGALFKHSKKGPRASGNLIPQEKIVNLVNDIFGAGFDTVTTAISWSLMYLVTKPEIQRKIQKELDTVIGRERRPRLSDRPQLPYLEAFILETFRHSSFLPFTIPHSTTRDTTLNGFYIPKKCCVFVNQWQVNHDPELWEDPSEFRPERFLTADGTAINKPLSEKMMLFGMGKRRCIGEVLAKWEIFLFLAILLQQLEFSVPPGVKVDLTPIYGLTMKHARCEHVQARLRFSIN

COc1ccc(CC(=O)O)cc1Oc1ccc(NC(=O)C(C)(C)C)cc1CSC(C)(C)C [Compound 1, 2-(3-(2-((tert-butylthio)methyl)-4-(2,2-dimethyl-propionylamino)phenoxy)-4-methoxyphenyl)acetic acid]
EC50 ([1]; 18 hr study, read-out: 18-hr EC50, inhibition of IV-DK-PGD2-induced leukocyte influx): 18 nM | Solubility mg/ml Free Base equivalent ([2]; test solvent pH 1.5, 25° C., 24 hours, listed as Compound 1 Pattern 1): 0.013 mg/mL | Solubility mg/ml Free Base equivalent ([2]; test solvent pH 4.0, 25° C., 24 hours, listed as Compound 1 Pattern 1): 0.0059 mg/mL | solubility at 24 h ([2]; test solvent pH 5.0, 25 °C, pH 5, aqueous buffer, thermodynamic from solid, test solvent pH 5.0, 25° C., 24 hours, read-out: Solubility mg/ml Free Base equivalent): 0.027 mg/mL | Solubility mg/ml Free Base equivalent ([2]; test solvent pH 6.5, 25° C., 24 hours, listed as Compound 1 Pattern 1): 0.39 mg/mL | Solubility mg/ml Free Base equivalent ([2]; test solvent pH 7.4, 25° C., 24 hours, listed as Compound 1 Pattern 1): 7.6 mg/mL | Thermodynamic solubility in water ([2]; water, listed as Pattern 1 of Compound 1): 6200 µg/mL | concentration at 18.5 h ([3]; 18.5 hours after oral 10 mg/kg): 4 nM | concentration at 18.5 h ([3]; 18.5 hours after oral 30 mg/kg): 21 nM | concentration at 18.5 h ([3]; 18.5 hours after oral 100 mg/kg): 17 nM

COc1ccc(CC(=O)O)cc1Oc1ccc(NC(=O)C(C)(C)C)cc1CSC(C)(C)C [Compound 2, 2-(3-(2-((tert-butylthio)methyl)-4-(2,2-dimethyl-propionylamino)phenoxy)-4-methoxyphenyl)acetic acid, sodium salt]
IC50 [4]: > 50000 nM | % inhibition of DK-PGD2-induced peripheral blood leukocyte increase ([1]; 2 hr study, 10 mg/kg oral): 19 (±23) % | % inhibition of DK-PGD2-induced peripheral blood leukocyte increase ([1]; 2 hr study, 30 mg/kg oral): 107 (±9) % | % inhibition of peripheral blood leukocyte numbers ([1]; 18 hr study, 10 mg/kg oral): 29 (±14) % | % inhibition of peripheral blood leukocyte numbers ([1]; 18 hr study, 30 mg/kg oral): 50 (±8) % | % inhibition of peripheral blood leukocyte numbers ([1]; 18 hr study, 100 mg/kg oral): 77 (±12) % | EC50 ([1]; 2 hr study, read-out: EC50 associated with ED50): 50 nM | ED50 ([1]; 2 hr study): 11 mg/kg | ED50 ([1]; 18 hr study): 63 mg/kg | nasal responses (sneezes and nasal rubs) after OVA challenge [5]: significantly reduced | Solubility mg/ml Free Base equivalent ([2]; test solvent pH 1.5, 25° C., 24 hours, listed as Compound 2 Pattern 1, sodium salt): 0.0058 mg/mL | pH of Unfiltered Saturated solution ([2]; test solvent pH 1.5, listed as Compound 2 Pattern 1, sodium salt): 2.73 | Solubility mg/ml Free Base equivalent ([2]; test solvent pH 4.0, 25° C., 24 hours, listed as Compound 2 Pattern 1, sodium salt): 0.0023 mg/mL | pH of Unfiltered Saturated solution ([2]; test solvent pH 4.0, listed as Compound 2 Pattern 1, sodium salt): 4.67 | Solubility mg/ml Free Base equivalent ([2]; test solvent pH 5.0, 25° C., 24 hours, listed as Compound 2 Pattern 1, sodium salt): 0.04 mg/mL | pH of Unfiltered Saturated solution ([2]; test solvent pH 5.0, listed as Compound 2 Pattern 1, sodium salt): 5.88 | Solubility mg/ml Free Base equivalent ([2]; test solvent pH 6.5, 25° C., 24 hours, listed as Compound 2 Pattern 1, sodium salt): 4.1 mg/mL | pH of Unfiltered Saturated solution ([2]; test solvent pH 6.5, listed as Compound 2 Pattern 1, sodium salt): 7.06 | Solubility mg/ml Free Base equivalent ([2]; test solvent pH 7.4, 25° C., 24 hours, listed as Compound 2 Pattern 1, sodium salt): 18.0 mg/mL | pH of Unfiltered Saturated solution ([2]; test solvent pH 7.4, listed as Compound 2 Pattern 1, sodium salt): 7.97 | Thermodynamic solubility in water [2, 7]: > 20000 µg/mL | pH of unfiltered solution [2, 7]: 8.18 | concentration at 2.5 h ([3]; 2.5 hours after oral 10 mg/kg): 45 nM | concentration at 2.5 h ([3]; 2.5 hours after oral 30 mg/kg): 120 nM | IC50 [6]: > 25000 nM
